According to patent US20150299764A1, “IMMOBILISED CYCLIN-DEPENDENT KINASE 4 FUSION PROTEINS AND USES THEREOF” (UNIVERSITE LIBRE DE BRUXELLES, priority 2012, published 2015):
Values belong to the compound of their own block, whether it stands above or below them.

Key:
[1] = molecular target: T1, CDK7AS (mutated version of CDK7) in HCT116K7AS cells (Homo sapiens, UniProt P50613, D92E/F91G); assay: Rb kinase activity of streptavidin-immobilized Avi-tagged cyclin D3/CDK4 fusion from HCT116K7AS cells treated with serum and CDK7AS inhibitor; assay type: cell-based
T1 construct: These cells express only a mutated version of CDK7 (CDK7AS); endogenous in cells; host or cells: HCT116K7AS cells transduced with the Avi-tagged cyclin D3/CDK4 reporter (HCT116K7AS-V26)
T1 sequence (P50613 whole entry F91G/D92E, the tested form may be a part): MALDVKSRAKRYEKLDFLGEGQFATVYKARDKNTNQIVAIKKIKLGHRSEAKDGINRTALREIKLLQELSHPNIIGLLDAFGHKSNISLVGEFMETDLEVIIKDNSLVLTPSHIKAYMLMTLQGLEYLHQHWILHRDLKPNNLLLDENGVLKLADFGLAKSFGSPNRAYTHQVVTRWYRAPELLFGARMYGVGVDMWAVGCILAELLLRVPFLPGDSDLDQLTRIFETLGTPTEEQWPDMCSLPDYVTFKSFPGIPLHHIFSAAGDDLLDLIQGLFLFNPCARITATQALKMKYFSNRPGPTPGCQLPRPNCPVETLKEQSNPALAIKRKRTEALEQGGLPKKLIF
T1 sequence (P51946 whole entry partner, the tested form may be a part): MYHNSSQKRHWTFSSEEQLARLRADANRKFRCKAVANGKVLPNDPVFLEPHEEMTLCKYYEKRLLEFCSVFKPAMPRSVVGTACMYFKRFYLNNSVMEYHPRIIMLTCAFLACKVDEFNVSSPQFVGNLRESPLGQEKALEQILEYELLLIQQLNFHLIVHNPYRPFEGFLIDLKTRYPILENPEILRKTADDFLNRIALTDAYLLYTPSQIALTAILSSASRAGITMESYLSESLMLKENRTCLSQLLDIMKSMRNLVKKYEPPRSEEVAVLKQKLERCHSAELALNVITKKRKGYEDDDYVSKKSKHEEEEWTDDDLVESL
T1 sequence (P51948 whole entry partner, the tested form may be a part): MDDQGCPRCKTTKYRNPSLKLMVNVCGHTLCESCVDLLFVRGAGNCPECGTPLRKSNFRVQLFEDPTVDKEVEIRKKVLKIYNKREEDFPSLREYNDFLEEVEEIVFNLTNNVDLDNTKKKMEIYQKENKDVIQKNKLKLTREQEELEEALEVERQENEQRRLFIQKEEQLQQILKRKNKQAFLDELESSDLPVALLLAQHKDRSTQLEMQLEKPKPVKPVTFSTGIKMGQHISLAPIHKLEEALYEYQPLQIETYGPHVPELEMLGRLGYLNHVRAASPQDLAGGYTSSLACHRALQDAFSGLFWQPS
Method: In order to verify if transgenes expressed in HCT116K7AS cells after transduction with the vectors described in Example 8 could be immobilized on streptavidin-coated sepharose beads and were enzymatically active, the HCT116K7AS cells expressing the cyclin D3/CDK4 fusion protein described in the Example 14 were cultivated in 6 cm Petri dishes with 10 ml DMEM medium supplemented with 10% serum, Sodium pyruvate (1 mM), Penicillin (50 U/ml) and Streptomycin (50 μg/ml). These cells express only a mutated version of CDK7 (CDK7AS) inhibitable by bulky ATP analogs such as 1-NMPP1 (Santa Cruz). The cells were rendered quiescent by incubating them for three days in DMEM without serum, but supplemented with biotin (0.1 mM), Sodium pyruvate (1 mM), Penicillin (50 U/ml) and Streptomycin (50 μg/ml). Cells were stimulated to proliferate by adding 10% serum for 5 or 16 hours in the continuous presence of biotin (0.1 mM). As indicated, vehicle (DMSO) or CDK7AS inhibitor (1-NMPP1) were added together with serum for the same time or for an additional pulse of 1 hour. […]
The pRb kinase assay was performed on the cellular extract bound to the streptavidin-coated sepharose beads as described previously (Coulonval et al., supra). […] The phosphorylation on T826 of the pRb fragment was detected using a phospho-specific anti-pRb (T826) antibody (Epitomics). […]

[2] = molecular target: biotinylated Avi-tagged luciferase/EGFP fusion (pWFAvi_IBc_luc) [luciferase: P08659]; assay: pull-down from HEK293T extract on streptavidin-coated sepharose beads; bound luciferase activity relative to bound plus unbound
[3] = test system: MCF7 cells; assay: BrdU incorporation (DNA synthesis) in quiescent MCF7 cells; assay type: cell-based; details: fulvestrant 10 nM during the last 24 h of the incubation without serum and insulin, results not shown
Method: MCF7 cells (ATCC HTB-22) were routinely cultivated in Dulbecco's Modified Eagle Medium (DMEM) comprising 5% serum, 6 ng/ml insulin, 0.1 mM non essential amino acids (NEAA, GIBCO), 1 mM Sodium pyruvate, 50 U/ml Penicillin and 50 μg/ml Streptomycin. The cells were rendered quiescent by incubating them for three days in phenol-free DMEM without serum and insulin, but supplemented with 0.1 mM NEAA (GIBCO), 1 mM Sodium pyruvate, 50 U/ml Penicillin and 50 μg/ml Streptomycin. Cells were kept quiescent (control) or were stimulated to proliferate by adding 5% serum and 6 ng/ml insulin in the culture medium. Samples were harvested 2 h, 4 h, 6 h, 8 h, 10 h, 12 h, 16 h, and 24 h after stimulation of MCF7 cells. Bromodeoxyuridine (BrdU, 10^−4 M) and fluorodeoxyuridine (2.10^−6 M) were added to the cells for the last 24 h of culture. BrdU staining was used to record DNA synthesis. […] DNA synthesis resumed 16 h after stimulation by serum and insulin (FIG. 5, dashed line).
When fulvestrant (10 nM) was added to the culture to block estrogen receptor action during the last 24 h of the incubation without serum and insulin, the proportion of cells starting DNA synthesis dropped to less than 2% (results not shown).

serum stimulation of Rb kinase activity of the biotinylatable Cyclin D3/CDK4 fusion ([1]; inhibitor added during the last hour of 17 hours serum stimulation, HCT116K7AS (FIG. 12)): severely impaired | serum induction of Rb kinase activity of the biotinylatable Cyclin D3/CDK4 fusion ([1]; inhibitor present together with serum for 5 hours, HCT116K7AS, P-Rb T826 immunoblot (FIG. 12)): prevented
Compound: CC(C)(C)n1nc(Cc2cccc3ccccc23)c2c(N)ncnc21 [1-NMPP1]

percent of the total luciferase activity bound [2]: < 40%
Compound: streptavidin (from UniProt P22629 37-163)

Compound: C[C@]12CC[C@@H]3c4ccc(O)cc4C[C@@H](CCCCCCCCC[S+]([O-])CCCC(F)(F)C(F)(F)F)[C@H]3[C@@H]1CC[C@@H]2O (stereo partly shown) [fulvestrant]
proportion of cells starting DNA synthesis [3]: less than 2%
